Experimental data: PMC4322223, “Biochemical and structural characterization of a thermostable β-glucosidase from Halothermothrix orenii for galacto-oligosaccharide synthesis” (Applied Microbiology and Biotechnology, 2014)

Molecular target: T1, HoBGLA (Halothermothrix orenii, UniProt B8CYA8)
T1 construct: gene Hore_15280; full length, 451 residues, GH1; pNIC28-Bsa4 N-terminal His6-TEV tag cut off with TEV protease; expressed in E. coli BL21(DE3); 53 kDa
Test: X-ray crystal structure, […] Å, crystal soaked with cellobionolactam
Format: binding
Conditions: pH 5.5; subsite −1, non-covalent, glucose left after cleavage of cellobionolactam

T1 sequence (B8CYA8 entry or part of it): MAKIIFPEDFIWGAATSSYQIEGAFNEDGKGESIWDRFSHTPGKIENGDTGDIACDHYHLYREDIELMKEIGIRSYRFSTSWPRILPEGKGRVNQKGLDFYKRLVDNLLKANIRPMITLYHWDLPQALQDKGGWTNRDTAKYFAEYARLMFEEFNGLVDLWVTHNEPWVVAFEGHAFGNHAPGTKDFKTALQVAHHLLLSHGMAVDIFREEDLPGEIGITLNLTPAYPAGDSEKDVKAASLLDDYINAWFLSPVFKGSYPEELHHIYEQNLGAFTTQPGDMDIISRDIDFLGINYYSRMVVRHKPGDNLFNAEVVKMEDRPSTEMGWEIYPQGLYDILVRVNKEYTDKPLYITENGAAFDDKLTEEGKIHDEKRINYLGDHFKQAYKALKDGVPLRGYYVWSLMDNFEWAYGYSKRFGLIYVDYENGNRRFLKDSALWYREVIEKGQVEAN

Question: For `OC[C@H]1O[C@@H](O)[C@H](O)[C@@H](O)[C@@H]1O` [D-glucose], which “X-ray crystal structure, 1.80 Å, crystal soaked with cellobionolactam” value is on record?
Answer: Its value is “The crystal structure of HoBGLA in complex with glucose, representing the post-hydrolysis state”.
